{"source": "BindingDB's records for doi:10.1016/S0960-894X(98)00544-7", "about": "(University of Ferrara, 1999)", "assay": "Inhibition of Ha-ras polymerase-chain reaction product"}
{"molecule": "COC(=O)CCOc1cc2c(cc1OC)C(=O)N1CCC[C@H]1C=N2", "note": "[3-((S)-7-Methoxy-5-oxo-2,3,5,11a-tetrahydro-1H-benzo[e]pyrrolo[1,2-a][1,4]diazepin-8-yloxy)-propionic acid methyl ester]", "values": [{"measurement": "IC50", "value": "> 300", "unit": "µM"}]}
